Columns and labels:
BEAS-2B = assay: Toxicity in human BEAS2B cells assessed as reduction in cell viability up to 7.8 ug/ml incubated for 24 hrs by resazurin dye based assay
A549 = assay: Toxicity in human A549 cells assessed as reduction in cell viability up to 7.8 ug/ml incubated for 24 hrs by resazurin dye based assay; conditions: a549, 24 h
Candida albicans [1] = assay: Fungicidal activity against Candida albicans ATCC 10231 assessed as reduction in microbial growth at 4 times MIC incubated for 6 hrs by time kill assay; type: functional
Candida albicans [2] = assay: Effect on sterol composition in Candida albicans ATCC 10231 assessed as eburicol level at 0.125 ug/mL incubated for […] by GC-MS analysis
Candida albicans [3] = assay: Effect on sterol composition in Candida albicans ATCC 64124 assessed as lanosterol level at 1.95 ug/mL incubated for 10 mins by LC-MS analysis (reference value: 29.38%)
Candida albicans [4] = assay: Effect on sterol composition in Candida albicans ATCC 10231 assessed as ergosterol level at 0.125 ug/mL incubated for 10 mins by GC-MS analysis (reference value: 91.15%)
Candida albicans [5] = assay: Effect on sterol composition in Candida albicans ATCC 64124 assessed as ergosterol level at 1.95 ug/mL incubated for 10 mins by LC-MS analysis (reference value: 54.72%)
Candida albicans [6] = assay: Effect on sterol composition in Candida albicans ATCC 64124 assessed as eburicol level at 1.95 ug/mL incubated for 10 mins by LC-MS analysis (reference value: 6.28%)
Candida albicans [7] = assay: Effect on sterol composition in Candida albicans ATCC 10231 assessed as lanosterol level at 0.125 ug/mL incubated for 10 mins by GC-MS analysis (reference value: 4.17%)

With `CCCCCCCCC(O)(Cn1cncn1)c1ccc(F)cc1F` (centres undefined) the Activity (BEAS-2B) was “Non-Toxic” and the Activity (A549) was “Non-Toxic”.
With `CCCCCCC(O)(Cn1cncn1)c1ccc(Cl)cc1Cl` (centres undefined) the Activity (Candida albicans [1]) was 1.25 log10CFU, the Activity (Candida albicans [2]) was 2.93% and the Activity (Candida albicans [3]) was 28.99%. For the same molecule, the Activity (Candida albicans [4]) was 49%, the Activity (Candida albicans [5]) was 5.73% and the Activity (Candida albicans [6]) was 47.97%. For the same molecule, the Activity (Candida albicans [7]) was 19.3%.

From ChEMBL document CHEMBL4265871, “Novel alkylated azoles as potent antifungals” (Eur J Med Chem, 2017)
